Reference: patent US20230277630A1, “METHODS AND COMPOSITIONS FOR TREATING AMYOTROPHIC LATERAL SCLEROSIS” (Amylyx Pharmaceuticals, Inc., priority 2022, published 2023)

Legend:
[1] = target: CYP2D6 (Homo sapiens, UniProt P10635); test: Inhibition of CYP2D6 activity in human liver microsomes; type: in vitro ADME; set-up: co-incubated with pooled HLM (0.25 mg protein/mL); from tissue; host or cells: pooled human liver microsomes; conditions: pooled human liver microsomes, pH 7.4, read-out: % of Control Enzyme Activity (n = 3) Average
Chain of CYP2D6 (P10635 whole entry): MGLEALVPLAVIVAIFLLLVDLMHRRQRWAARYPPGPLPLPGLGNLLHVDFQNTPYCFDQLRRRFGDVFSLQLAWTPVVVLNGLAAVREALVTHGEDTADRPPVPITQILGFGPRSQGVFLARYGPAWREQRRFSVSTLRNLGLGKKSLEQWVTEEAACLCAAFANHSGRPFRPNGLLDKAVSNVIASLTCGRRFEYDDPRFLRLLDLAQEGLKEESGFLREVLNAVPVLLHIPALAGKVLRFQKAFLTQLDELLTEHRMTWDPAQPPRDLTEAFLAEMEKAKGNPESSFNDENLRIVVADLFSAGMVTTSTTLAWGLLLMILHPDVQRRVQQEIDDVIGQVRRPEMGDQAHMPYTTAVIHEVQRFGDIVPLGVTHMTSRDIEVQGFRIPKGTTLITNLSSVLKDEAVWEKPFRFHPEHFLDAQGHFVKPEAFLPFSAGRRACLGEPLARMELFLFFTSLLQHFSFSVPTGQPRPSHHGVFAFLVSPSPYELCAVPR

[2] = target: CYP2C9 (Homo sapiens, UniProt P11712); conditions: 4 μM, pH 7.4
Chain of CYP2C9 (P11712 whole entry): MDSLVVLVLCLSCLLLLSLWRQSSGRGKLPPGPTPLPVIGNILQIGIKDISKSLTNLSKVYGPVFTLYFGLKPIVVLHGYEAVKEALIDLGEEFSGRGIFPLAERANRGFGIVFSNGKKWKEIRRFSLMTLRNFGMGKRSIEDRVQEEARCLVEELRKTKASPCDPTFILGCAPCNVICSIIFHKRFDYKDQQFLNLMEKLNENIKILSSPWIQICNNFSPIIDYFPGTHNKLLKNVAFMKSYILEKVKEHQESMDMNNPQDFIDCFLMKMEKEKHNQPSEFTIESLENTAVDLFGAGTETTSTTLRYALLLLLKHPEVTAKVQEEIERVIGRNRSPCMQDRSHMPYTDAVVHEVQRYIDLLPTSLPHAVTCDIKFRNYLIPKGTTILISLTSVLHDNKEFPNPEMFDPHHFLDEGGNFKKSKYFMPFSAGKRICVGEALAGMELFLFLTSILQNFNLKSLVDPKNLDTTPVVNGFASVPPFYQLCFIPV
Experimental: The remaining of TA (expressed as the peak area ratio of test article to IS) was determined by LC-MS/MS. CYP enzyme activities of the HLM were verified in parallel by determining the formation of individual CYP probe metabolites by LC-MS/MS using standard curves.

[3] = CYP reaction phenotyping: CYP control (negative control without CYP enzymes); conditions: pH 7.4
Experimental: The reaction was initiated by the addition of NADPH, followed by incubation at 37° C.

[4] = target: hrCYP2C9 (Homo sapiens, UniProt P11712)
Chain of hrCYP2C9 (P11712 whole entry): as above

[5] = target: T1, OAT3 (Homo sapiens, UniProt Q8TCC7); test: OAT3 inhibitor (IC50) assessment, furosemide uptake in transfected HEK cells; conditions: 5 μM Furosemide + 100 μM Probenecid
T1 sequence (Q8TCC7 1-542): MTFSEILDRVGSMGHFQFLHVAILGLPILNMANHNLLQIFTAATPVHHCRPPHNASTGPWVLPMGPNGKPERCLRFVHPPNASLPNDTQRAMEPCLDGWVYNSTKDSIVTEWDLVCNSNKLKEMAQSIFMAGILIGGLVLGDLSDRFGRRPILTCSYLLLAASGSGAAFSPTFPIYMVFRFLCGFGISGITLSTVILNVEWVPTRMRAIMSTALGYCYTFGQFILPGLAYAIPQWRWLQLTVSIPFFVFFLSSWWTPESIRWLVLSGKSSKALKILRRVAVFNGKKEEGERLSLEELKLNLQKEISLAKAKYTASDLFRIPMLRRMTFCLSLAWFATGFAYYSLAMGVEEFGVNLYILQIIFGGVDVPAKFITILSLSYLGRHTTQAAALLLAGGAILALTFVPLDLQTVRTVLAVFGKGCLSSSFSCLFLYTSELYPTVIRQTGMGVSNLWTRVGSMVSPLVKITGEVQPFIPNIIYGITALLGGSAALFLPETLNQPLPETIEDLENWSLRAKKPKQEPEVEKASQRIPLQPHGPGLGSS

[6] = target: T1, OAT3; test: in vitro; conditions: probe furosemide (5 μM)
[7] = target: T2, OCT2 (Homo sapiens, UniProt O15244); test: in vitro; conditions: probe MPP+ (5 μM)
T2 sequence (O15244 1-555): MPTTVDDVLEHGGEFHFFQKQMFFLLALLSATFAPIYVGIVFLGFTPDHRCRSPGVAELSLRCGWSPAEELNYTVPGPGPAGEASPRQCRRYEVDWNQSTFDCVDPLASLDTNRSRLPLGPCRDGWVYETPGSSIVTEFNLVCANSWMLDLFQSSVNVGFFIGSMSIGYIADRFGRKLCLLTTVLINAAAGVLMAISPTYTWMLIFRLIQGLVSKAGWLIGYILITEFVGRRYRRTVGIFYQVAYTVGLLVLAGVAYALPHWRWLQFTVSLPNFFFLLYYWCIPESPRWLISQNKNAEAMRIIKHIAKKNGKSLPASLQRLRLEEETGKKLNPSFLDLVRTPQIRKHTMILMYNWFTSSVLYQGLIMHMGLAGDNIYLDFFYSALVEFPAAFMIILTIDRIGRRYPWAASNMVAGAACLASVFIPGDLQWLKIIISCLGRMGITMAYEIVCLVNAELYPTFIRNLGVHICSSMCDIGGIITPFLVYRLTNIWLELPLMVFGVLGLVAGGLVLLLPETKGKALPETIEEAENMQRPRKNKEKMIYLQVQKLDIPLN

[8] = target: T2, OCT2; test: OCT2 inhibitor (IC50) assessment, MPP+ uptake in transfected HEK cells; conditions: 5 μM MPP+ + 300 μM Imipramine
[9] = target: T3, MATE2K (Homo sapiens, UniProt Q86VL8); test: in vitro; conditions: probe metformin (50 μM)
T3 sequence (Q86VL8 1-566 isoform Q86VL8-3): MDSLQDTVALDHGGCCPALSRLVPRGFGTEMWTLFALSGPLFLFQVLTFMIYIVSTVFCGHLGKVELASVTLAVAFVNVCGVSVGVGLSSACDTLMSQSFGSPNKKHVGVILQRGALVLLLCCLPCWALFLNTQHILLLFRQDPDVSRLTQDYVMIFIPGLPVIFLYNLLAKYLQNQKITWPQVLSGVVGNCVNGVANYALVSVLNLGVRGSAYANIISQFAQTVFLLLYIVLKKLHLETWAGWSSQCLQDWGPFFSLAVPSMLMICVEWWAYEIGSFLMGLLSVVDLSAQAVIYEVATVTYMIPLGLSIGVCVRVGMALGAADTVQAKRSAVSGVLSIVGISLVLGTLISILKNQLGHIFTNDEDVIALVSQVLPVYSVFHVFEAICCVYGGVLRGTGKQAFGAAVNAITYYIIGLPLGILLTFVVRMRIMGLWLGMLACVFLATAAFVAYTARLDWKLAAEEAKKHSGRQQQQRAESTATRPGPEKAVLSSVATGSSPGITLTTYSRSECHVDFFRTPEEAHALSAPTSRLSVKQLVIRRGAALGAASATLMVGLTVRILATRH

[10] = target: T3, MATE2K; test: MATE2K inhibitor (IC50) assessment, metformin uptake in transfected HEK cells; conditions: 50 μM Metformin + 1 μM Pyrimethamine

SMILES: C=C[C@H]1C[N@@]2CC[C@H]1C[C@@H]2[C@@H](O)c1ccnc2ccc(OC)cc12 [Quinidine]
- activity at 10 μM [1]: 5.61%

SMILES: O=C(O)Cc1ccccc1Nc1c(Cl)cccc1Cl [Diclofenac]
- Formation Rate Ratio [2]: 7.7
- Formation Rate [3]: 0 pmol metabolite/min/mg Supersome protein
- Measured Metabolite [3]: 0 µM
- Formation Rate Ratio [4]: >>2
- Formation Rate ([4]; human, 20 min, 6 μM, pH 7.4): 845 pmol metabolite/min/mg Supersome protein
- Measured Metabolite ([4]; human, 20 min, 6 μM, pH 7.4): 1.56 µM

SMILES: CCCN(CCC)S(=O)(=O)c1ccc(C(=O)O)cc1 [probenecid]
- Percentage Inhibition of OAT3 [5]: 99.1%
- inhibition at 100 μM [6]: 99.1%

SMILES: CN(C)CCCN1c2ccccc2CCc2ccccc21 [imipramine]
- inhibition at 300 μM [7]: 97.9%
- Percentage Inhibition of OCT2 [8]: 97.9%

SMILES: CCc1nc(N)nc(N)c1-c1ccc(Cl)cc1 [pyrimethamine]
- inhibition at 1 μM [9]: 85.3%
- Percentage Inhibition of MATE2K [10]: 85.3%
